Results taken from patent publication US10710978B2, “STK4 inhibitors for treatment of hematologic malignancies” (Dana-Farber Cancer Institute, Inc., priority 2015, dated 2020).
Like-named read-outs stand apart in the source and are kept apart here.

What was measured:
Experiment in all cases: KiNativ assay
Assay type in all cases: binding
Conditions in all cases: H929 live cell
PLK1 = PLK1 (Homo sapiens (Human), UniProt P53350)
Description: (§1) Biochemical IC50s of the compounds of the present disclosure against various kinases were measured in a KiNativ assay. Compounds were screened in duplicate at 10 μM in H929 live cell. IC50 was measured via Mass spectroscopy (MS).

ABL, ARG = system: ABL, ARG
Description: as §1

NEK4 = NEK4 (Homo sapiens (Human), UniProt P51957)
Description: as §1

CDC2 = CDC2 (Homo sapiens (Human), UniProt P06493)
Description: as §1

PRPK = PRPK (Homo sapiens (Human), UniProt Q96S44)
Description: as §1

CK1a = CK1a (Homo sapiens (Human), UniProt P48729)
Description: as §1

MAP2K5 = MAP2K5 (Homo sapiens (Human), UniProt Q13163)
Description: as §1

MASTL = MASTL (Homo sapiens (Human), UniProt Q96GX5)
Description: as §1

PIP4K2A = PIP4K2A (Homo sapiens (Human), UniProt P48426)
Description: as §1

SGK3 = SGK3 (Homo sapiens (Human), UniProt Q96BR1)
Description: as §1

SRPK1 = SRPK1 (Homo sapiens (Human), UniProt Q96SB4)
Description: as §1

CK1g2 = CK1g2 (Homo sapiens (Human), UniProt P78368)
Description: as §1

IRE1 = IRE1 (Homo sapiens (Human), UniProt O75460)
Description: as §1

LYN = LYN (Homo sapiens (Human), UniProt P07948)
Description: as §1

CDK5 = CDK5 (Homo sapiens (Human), UniProt Q00535)
Description: as §1

LKB1 = LKB1 (Homo sapiens (Human), UniProt Q15831)
Description: as §1

IKKb = IKKb (Homo sapiens (Human), UniProt O14920)
Description: as §1

NuaK1 = NuaK1 (Homo sapiens (Human), UniProt O60285)
Description: as §1

HPK1 = HPK1 (Homo sapiens (Human), UniProt Q92918)
Description: as §1

MARK3 = MARK3 (Homo sapiens (Human), UniProt P27448)
Description: as §1

KSR1, KSR2 = system: KSR1, KSR2
Description: as §1

SRPK2 = SRPK2 (Homo sapiens (Human), UniProt P78362)
Description: as §1

JAK3 domain2 = JAK3 domain2 (Homo sapiens (Human), UniProt P52333)
Description: as §1

GCN2 domain2 = GCN2 domain2 (Homo sapiens (Human), UniProt Q9P2K8)
Description: as §1

MAP3K2, MAP3K3 = system: MAP3K2, MAP3K3
Description: as §1

ULK1 = ULK1 (Homo sapiens (Human), UniProt O75385)
Description: as §1

PITSLRE = system: PITSLRE
Description: as §1

CDK2 = CDK2 (Homo sapiens (Human), UniProt P24941)
Description: as §1

RSK1 domain1 = RSK1 domain1 (Homo sapiens (Human), UniProt Q15418)
Description: as §1

PKN1 = PKN1 (Homo sapiens (Human), UniProt Q16512)
Description: as §1

IKKe, TBK1 = system: IKKe, TBK1
Description: as §1

MLKL = MLKL (Homo sapiens (Human), UniProt Q8NB16)
Description: as §1

STLK5 = STLK5 (Homo sapiens (Human), UniProt Q7RTN6)
Description: as §1

IKKa = IKKa (Homo sapiens (Human), UniProt O15111)
Description: as §1

[1] = range class, read-out: % inhibition

Sequence of NuaK1 (O60285 whole entry): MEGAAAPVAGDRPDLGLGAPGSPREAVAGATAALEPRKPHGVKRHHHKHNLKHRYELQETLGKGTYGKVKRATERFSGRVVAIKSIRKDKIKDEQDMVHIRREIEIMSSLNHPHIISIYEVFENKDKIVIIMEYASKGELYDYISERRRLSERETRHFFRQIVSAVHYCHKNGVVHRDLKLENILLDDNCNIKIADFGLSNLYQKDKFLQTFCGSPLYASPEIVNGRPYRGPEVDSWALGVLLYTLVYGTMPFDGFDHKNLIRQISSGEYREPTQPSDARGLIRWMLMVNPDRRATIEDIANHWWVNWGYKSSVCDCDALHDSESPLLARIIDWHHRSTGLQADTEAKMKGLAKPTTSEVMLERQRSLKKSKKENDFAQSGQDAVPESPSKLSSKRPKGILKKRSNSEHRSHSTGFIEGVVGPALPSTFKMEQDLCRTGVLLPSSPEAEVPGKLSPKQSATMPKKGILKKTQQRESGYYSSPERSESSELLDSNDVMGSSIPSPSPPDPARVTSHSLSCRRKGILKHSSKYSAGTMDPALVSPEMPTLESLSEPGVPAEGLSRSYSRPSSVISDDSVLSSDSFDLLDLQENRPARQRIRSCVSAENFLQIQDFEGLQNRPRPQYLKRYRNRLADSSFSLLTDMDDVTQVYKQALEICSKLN
Sequence of STLK5 (Q7RTN6 whole entry): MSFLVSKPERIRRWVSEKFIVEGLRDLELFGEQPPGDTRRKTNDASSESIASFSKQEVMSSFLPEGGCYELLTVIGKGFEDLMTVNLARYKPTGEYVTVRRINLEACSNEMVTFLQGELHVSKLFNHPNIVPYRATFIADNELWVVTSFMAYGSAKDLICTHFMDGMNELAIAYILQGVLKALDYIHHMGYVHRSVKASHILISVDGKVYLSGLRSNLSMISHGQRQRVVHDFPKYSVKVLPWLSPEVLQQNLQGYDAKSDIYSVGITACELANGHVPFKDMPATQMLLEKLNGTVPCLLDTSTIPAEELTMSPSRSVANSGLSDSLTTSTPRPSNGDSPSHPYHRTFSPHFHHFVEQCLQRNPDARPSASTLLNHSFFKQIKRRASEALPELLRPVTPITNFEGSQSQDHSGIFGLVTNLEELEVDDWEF
Sequence of IKKa (O15111 whole entry): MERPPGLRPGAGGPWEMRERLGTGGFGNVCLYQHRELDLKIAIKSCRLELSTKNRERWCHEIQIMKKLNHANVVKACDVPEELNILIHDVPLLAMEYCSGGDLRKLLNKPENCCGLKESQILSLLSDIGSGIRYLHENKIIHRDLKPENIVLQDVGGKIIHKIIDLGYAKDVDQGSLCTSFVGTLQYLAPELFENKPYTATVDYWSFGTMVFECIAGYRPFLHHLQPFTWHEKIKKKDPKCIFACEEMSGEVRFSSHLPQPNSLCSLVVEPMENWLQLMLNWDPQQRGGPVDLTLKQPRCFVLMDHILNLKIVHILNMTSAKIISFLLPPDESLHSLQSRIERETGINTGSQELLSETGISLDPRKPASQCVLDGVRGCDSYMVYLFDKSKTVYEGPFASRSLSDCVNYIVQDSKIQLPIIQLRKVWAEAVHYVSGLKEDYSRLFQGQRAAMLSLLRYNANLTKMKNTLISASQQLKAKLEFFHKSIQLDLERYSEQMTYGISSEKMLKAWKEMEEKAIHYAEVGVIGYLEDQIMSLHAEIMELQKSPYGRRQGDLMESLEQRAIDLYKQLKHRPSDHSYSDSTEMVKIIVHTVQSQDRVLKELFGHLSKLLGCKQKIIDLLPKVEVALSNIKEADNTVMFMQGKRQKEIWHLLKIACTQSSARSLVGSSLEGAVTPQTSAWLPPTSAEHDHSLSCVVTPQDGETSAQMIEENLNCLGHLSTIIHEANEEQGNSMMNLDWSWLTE
Sequence of NEK4 (P51957 whole entry): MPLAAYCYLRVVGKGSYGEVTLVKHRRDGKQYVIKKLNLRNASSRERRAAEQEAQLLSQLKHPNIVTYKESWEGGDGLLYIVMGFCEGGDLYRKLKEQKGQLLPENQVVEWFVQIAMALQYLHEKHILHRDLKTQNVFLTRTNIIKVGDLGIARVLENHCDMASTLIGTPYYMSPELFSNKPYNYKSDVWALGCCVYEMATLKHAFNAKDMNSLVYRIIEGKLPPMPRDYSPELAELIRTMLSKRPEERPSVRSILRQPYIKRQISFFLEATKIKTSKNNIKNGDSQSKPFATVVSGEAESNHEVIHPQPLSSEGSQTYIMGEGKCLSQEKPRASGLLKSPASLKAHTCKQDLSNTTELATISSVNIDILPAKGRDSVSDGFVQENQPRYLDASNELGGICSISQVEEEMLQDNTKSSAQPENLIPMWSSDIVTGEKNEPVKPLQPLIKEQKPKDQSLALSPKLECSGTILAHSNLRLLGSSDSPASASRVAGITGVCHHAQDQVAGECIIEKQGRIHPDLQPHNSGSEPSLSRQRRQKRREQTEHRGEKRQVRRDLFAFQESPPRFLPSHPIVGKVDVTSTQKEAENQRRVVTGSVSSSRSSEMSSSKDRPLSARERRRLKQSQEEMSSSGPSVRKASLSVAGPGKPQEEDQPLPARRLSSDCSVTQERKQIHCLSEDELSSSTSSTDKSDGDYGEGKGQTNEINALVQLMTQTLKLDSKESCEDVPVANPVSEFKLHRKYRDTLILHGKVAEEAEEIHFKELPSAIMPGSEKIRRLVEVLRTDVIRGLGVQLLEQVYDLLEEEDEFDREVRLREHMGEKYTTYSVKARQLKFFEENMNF
Sequence of IKKb (O14920 whole entry): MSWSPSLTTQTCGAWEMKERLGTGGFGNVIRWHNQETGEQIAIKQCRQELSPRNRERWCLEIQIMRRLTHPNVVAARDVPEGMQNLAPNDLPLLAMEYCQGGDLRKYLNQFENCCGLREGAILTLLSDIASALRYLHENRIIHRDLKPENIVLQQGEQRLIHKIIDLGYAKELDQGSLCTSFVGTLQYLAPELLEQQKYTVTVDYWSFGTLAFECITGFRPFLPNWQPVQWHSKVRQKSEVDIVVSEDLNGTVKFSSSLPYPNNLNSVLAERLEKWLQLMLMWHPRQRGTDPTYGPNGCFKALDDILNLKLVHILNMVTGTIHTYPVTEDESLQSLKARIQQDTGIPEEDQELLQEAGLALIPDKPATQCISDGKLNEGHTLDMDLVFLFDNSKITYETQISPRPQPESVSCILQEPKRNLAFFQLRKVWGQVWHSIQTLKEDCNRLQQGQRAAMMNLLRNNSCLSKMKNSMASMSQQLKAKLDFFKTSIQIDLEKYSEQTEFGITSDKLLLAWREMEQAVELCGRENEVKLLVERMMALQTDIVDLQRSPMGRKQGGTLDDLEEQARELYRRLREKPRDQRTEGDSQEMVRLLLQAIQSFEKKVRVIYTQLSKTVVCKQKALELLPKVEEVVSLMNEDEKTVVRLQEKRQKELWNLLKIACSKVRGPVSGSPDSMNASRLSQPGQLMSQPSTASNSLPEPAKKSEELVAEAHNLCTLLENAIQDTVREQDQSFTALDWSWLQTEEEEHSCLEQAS
Sequence of MLKL (Q8NB16 whole entry): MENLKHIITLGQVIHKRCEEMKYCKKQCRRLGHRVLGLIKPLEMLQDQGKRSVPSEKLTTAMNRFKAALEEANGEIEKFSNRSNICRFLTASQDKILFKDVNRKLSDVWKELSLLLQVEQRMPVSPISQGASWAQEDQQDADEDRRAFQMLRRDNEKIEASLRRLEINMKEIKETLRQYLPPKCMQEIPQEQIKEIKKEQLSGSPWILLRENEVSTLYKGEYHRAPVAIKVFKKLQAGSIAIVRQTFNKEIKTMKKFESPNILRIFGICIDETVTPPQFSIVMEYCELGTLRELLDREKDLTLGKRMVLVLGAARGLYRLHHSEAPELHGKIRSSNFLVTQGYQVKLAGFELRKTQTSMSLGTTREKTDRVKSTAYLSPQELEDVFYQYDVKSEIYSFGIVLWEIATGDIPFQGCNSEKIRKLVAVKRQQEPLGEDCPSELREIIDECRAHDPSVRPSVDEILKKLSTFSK
Sequence of LYN (P07948 whole entry): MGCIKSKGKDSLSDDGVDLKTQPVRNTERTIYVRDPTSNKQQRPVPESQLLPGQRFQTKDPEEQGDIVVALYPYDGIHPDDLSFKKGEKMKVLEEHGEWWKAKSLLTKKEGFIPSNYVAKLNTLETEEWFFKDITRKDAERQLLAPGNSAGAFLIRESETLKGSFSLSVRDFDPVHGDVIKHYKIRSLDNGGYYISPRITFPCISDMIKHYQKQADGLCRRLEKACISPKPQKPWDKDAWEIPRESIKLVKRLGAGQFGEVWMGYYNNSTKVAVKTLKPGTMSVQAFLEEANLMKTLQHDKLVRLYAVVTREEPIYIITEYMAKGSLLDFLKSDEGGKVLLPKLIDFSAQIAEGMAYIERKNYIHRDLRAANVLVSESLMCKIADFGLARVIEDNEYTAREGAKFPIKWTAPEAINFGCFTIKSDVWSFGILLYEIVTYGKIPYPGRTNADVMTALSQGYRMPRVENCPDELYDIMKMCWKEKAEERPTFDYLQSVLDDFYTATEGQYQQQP
Sequence of PLK1 (P53350 whole entry): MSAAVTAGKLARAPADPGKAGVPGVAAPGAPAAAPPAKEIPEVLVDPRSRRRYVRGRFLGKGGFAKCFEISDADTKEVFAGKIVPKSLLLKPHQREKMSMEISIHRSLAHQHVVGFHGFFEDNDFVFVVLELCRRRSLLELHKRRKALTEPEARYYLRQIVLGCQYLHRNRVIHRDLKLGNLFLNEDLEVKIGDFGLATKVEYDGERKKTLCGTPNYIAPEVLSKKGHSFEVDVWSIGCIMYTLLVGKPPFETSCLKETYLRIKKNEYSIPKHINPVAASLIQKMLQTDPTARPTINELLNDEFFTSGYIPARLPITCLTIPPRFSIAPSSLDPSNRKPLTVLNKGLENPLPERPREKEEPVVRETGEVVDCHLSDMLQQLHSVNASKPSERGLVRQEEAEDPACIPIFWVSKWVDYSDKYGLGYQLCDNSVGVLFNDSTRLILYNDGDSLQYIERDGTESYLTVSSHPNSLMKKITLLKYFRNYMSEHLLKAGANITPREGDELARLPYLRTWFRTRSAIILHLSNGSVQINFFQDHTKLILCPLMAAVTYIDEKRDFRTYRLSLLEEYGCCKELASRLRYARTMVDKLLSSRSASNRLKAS

With `COc1cc(NS(=O)(=O)C2CC2)ccc1-c1cnc(N)c(-c2ccc3c(c2)CCNC3=O)c1` [Compound I-50, N-(4-(6-amino-5-(1-oxo-1,2,3,4-tetrahydroisoquinolin-6-yl)pyridin-3-yl)-3-methoxyphenyl) cyclopropanesulfonamide] the inhibition at 10 µM (PLK1; [1]) was 0%, the inhibition at 10 µM (PLK1; read-out: inhibition (10 μM)) was -11.1% and the “% inhibition” value (ABL, ARG; 10 μM, range class) was 0.0%. The “inhibition (10 μM)” value (ABL, ARG) was −53.7%, the inhibition at 10 µM (NEK4; [1]) was 0% and the inhibition at 10 µM (NEK4; read-out: inhibition (10 μM)) was 25.1%. The inhibition at 10 µM (CDC2; [1]) was 0%, the inhibition at 10 µM (CDC2; read-out: inhibition (10 μM)) was 13.7% and the inhibition at 10 µM (PRPK; [1]) was 0%. It also gave an inhibition at 10 µM (PRPK; read-out: inhibition (10 μM)) of -23.6%, an inhibition at 10 µM (CK1a; [1]) of 0% and an inhibition at 10 µM (CK1a; read-out: inhibition (10 μM)) of -20.9%. For the same compound, the inhibition at 10 µM (MAP2K5; [1]) was 0%, the inhibition at 10 µM (MAP2K5; read-out: inhibition (10 μM)) was -12.1% and the inhibition at 10 µM (MASTL; [1]) was 0%. The inhibition at 10 µM (MASTL; read-out: inhibition (10 μM)) was -1.4%, the inhibition at 10 µM (PIP4K2A; [1]) was 0% and the inhibition at 10 µM (PIP4K2A; read-out: inhibition (10 μM)) was -5.5%. It also gave an inhibition at 10 µM (SGK3; [1]) of 0%, an inhibition at 10 µM (SGK3; read-out: inhibition (10 μM)) of 11.2% and an inhibition at 10 µM (SRPK1; [1]) of 0%. It also gave an inhibition at 10 µM (SRPK1; read-out: inhibition (10 μM)) of -9.2%, an inhibition at 10 µM (CK1g2; [1]) of 75 to 90% and an inhibition at 10 µM (CK1g2; read-out: inhibition (10 μM)) of 79.9%. It also gave an inhibition at 10 µM (IRE1; [1]) of 0%, an inhibition at 10 µM (IRE1; read-out: inhibition (10 μM)) of -8.7% and an inhibition at 10 µM (LYN; [1]) of 0%. It also gave an inhibition at 10 µM (LYN; read-out: inhibition (10 μM)) of 9.7%, an inhibition at 10 µM (CDK5; [1]) of 0% and an inhibition at 10 µM (CDK5; read-out: inhibition (10 μM)) of 11.3%. It also gave an inhibition at 10 µM (LKB1; [1]) of 0%, an inhibition at 10 µM (LKB1; read-out: inhibition (10 μM)) of -1.1% and an inhibition at 10 µM (IKKb; [1]) of 0%. The inhibition at 10 µM (IKKb; read-out: inhibition (10 μM)) was -26.2%, the “inhibition (10 μM)” value (NuaK1) was 61.5% and the inhibition at 10 µM (NuaK1; [1]) was 50 to 75%. The inhibition at 10 µM (NuaK1; read-out: inhibition (10 μM)) was 67.9%, the inhibition at 10 µM (HPK1; [1]) was over 90% and the inhibition at 10 µM (HPK1; read-out: inhibition (10 μM)) was 90.4%. For the same compound, the inhibition at 10 µM (MARK3; [1]) was 0%, the inhibition at 10 µM (MARK3; read-out: inhibition (10 μM)) was -17.3% and the “% inhibition” value (KSR1, KSR2; 10 μM, range class) was 0.0%. The “inhibition (10 μM)” value (KSR1, KSR2) was −18.4%, the inhibition at 10 µM (SRPK2; [1]) was 0% and the inhibition at 10 µM (SRPK2; read-out: inhibition (10 μM)) was 1.8%. It also gave an inhibition at 10 µM (JAK3 domain2; [1]) of 0%, an inhibition at 10 µM (JAK3 domain2; read-out: inhibition (10 μM)) of -20.2% and an inhibition at 10 µM (GCN2 domain2; [1]) of 0%. For the same compound, the inhibition at 10 µM (GCN2 domain2; read-out: inhibition (10 μM)) was -12.3%, the “% inhibition” value (MAP3K2, MAP3K3; 10 μM, range class) was 0.0% and the “inhibition (10 μM)” value (MAP3K2, MAP3K3) was 12.0%. The inhibition at 10 µM (ULK1; [1]) was 0%, the inhibition at 10 µM (ULK1; read-out: inhibition (10 μM)) was 28.8% and the “% inhibition” value (PITSLRE; 10 μM, range class) was 0.0%. The “inhibition (10 μM)” value (PITSLRE) was −27.6%, the inhibition at 10 µM (CDK2; [1]) was 0% and the inhibition at 10 µM (CDK2; read-out: inhibition (10 μM)) was 17.3%. It also gave an inhibition at 10 µM (RSK1 domain1; [1]) of 0%, an inhibition at 10 µM (RSK1 domain1; read-out: inhibition (10 μM)) of -4.6% and an inhibition at 10 µM (PKN1; [1]) of 0%. For the same compound, the inhibition at 10 µM (PKN1; read-out: inhibition (10 μM)) was -39.9%, the “% inhibition” value (IKKe, TBK1; 10 μM, range class) was 0.0% and the “inhibition (10 μM)” value (IKKe, TBK1) was 33.9%. It also gave an inhibition at 10 µM (MLKL; [1]) of 0%, an inhibition at 10 µM (MLKL; read-out: inhibition (10 μM)) of 8.2% and an inhibition at 10 µM (STLK5; [1]) of 0%. The inhibition at 10 µM (STLK5; read-out: inhibition (10 μM)) was -22.3%, the inhibition at 10 µM (IKKa; [1]) was 0% and the inhibition at 10 µM (IKKa; read-out: inhibition (10 μM)) was -1.9%.
